Test results: publication PMC5285354, “Cationic Net Charge and Counter Ion Type as Antimicrobial Activity Determinant Factors of Short Lipopeptides” (Frontiers in Microbiology, 2017)
Values after ≈ are worked out from the molar mass of the structure shown.

Experiments:
Assay type in all cases: cell-based
[1] = system: Pseudomonas aeruginosa (ATCC 9027); conditions: ATCC 9027, 24 h
human red blood cells = conditions: 1 h
Outline: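 Washed donor erythrocytes (4% v/v in PBS, EDTA-anticoagulated) incubated with graded lipopeptide concentrations for 1 h at 37 °C; hemoglobin release read at 550 nm in supernatants. Scaled between 0.1% Triton X-100 (100%) and PBS (0%); MHC is the lowest concentration giving 10% hemolysis.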

[2] = system: Candida albicans (ATCC 10231)
[3] = system: Escherichia coli (ATCC 25922); conditions: for MBC Escherichia coli, lipopeptides without TFA counter ion / MIC Escherichia coli / MIC Escherichia coli, lipopeptides without TFA counter ion: ATCC 25922, 18 h; for MBC Escherichia coli: ATCC 25922, 24 h
Outline: (§1)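 Broth microdilution per CLSI: Mueller-Hinton broth, 10^5 cfu/mL inoculum, 18 h at 37°C for bacteria; Sabouraud dextrose broth, 10^3 cfu/mL, 48 h at 25°C for fungi. MIC (μg/mL) is the lowest lipopeptide concentration inhibiting visible growth; MBC/MFC also determined. Triplicate on three days.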

[4] = system: Proteus vulgaris (PCM 2668); conditions: 18 h
Outline: as §1

[5] = system: Candida tropicalis (PCM 2681); conditions: PCM 2681, 48 h
Outline: as §1

[6] = system: Aspergillus brasiliensis (ATCC 16404); conditions: ATCC 16404, 48 h
Outline: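 Lowest lipopeptide concentration (μg/mL) with no observable growth gave the MIC, alongside MBC/MFC, by CLSI microbroth dilution. Fungi: Sabouraud dextrose broth, 10^3 cfu/mL start, 25°C for 48 h; bacteria: MH broth, 10^5 cfu/mL, 37°C for 18 h. Run in triplicate, three separate days.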

[7] = system: Staphylococcus aureus (ATCC 25923); conditions: for MBC Staphylococcus aureus, lipopeptides without TFA counter ion / MIC Staphylococcus aureus / MIC Staphylococcus aureus, lipopeptides without TFA counter ion: ATCC 25923, 18 h; for MBC Staphylococcus aureus: ATCC 25923, 24 h
Outline: as §1

[8] = system: Candida albicans (ATCC 10231); conditions: ATCC 10231, 48 h
Outline: as §1

[9] = system: Staphylococcus epidermidis (PCM 2118); conditions: for MIC Staphylococcus epidermidis: PCM 2118, 18 h; for MBC Staphylococcus epidermidis: PCM 2118, 24 h
Outline: as §1

[10] = system: Bacillus subtilis (ATCC 6633); conditions: for MIC Bacillus subtillis: ATCC 6633, 18 h; for MBC Bacillus subtillis: ATCC 6633, 24 h
Outline: as §1

[11] = system: Klebsiella pneumoniae (ATCC 700603); conditions: for MBC Klebsiella pneumoniae, lipopeptides without TFA counter ion / MIC Klebsiella pneumoniae / MIC Klebsiella pneumoniae, lipopeptides without TFA counter ion: ATCC 700603, 18 h; for MBC Klebsiella pneumoniae: ATCC 700603, 24 h
Outline: as §1

[12] = system: Pseudomonas aeruginosa (ATCC 9027); conditions: ATCC 9027, 18 h
Outline: as §1

[13] = system: Enterococcus faecalis (ATCC 29212); conditions: for MBC Enterococcus fecalis, lipopeptides without TFA counter ion / MIC Enterococcus fecalis / MIC Enterococcus fecalis, lipopeptides without TFA counter ion: ATCC 29212, 18 h; for MBC Enterococcus fecalis: ATCC 29212, 24 h
Outline: as §1

[14] = system: Proteus vulgaris (PCM 2668); conditions: 24 h

MIC Escherichia coli [3] [µg/mL]	MIC Proteus vulgaris [4] [µg/mL]	MIC Candida tropicalis [5] [µg/mL]	MIC Aspergillus brasiliensis [6] [µg/mL]	MIC Staphylococcus aureus [7] [µg/mL]	MIC Candida albicans [8] [µg/mL]	MIC Staphylococcus epidermidis [9] [µg/mL]	SMILES	MBC Pseudomonas aeruginosa [1] [µg/mL]	Hemolysis HC10 (MHC), concentration of lipopeptide inducing 10% of hemolysis (human red blood cells) [µg/mL]	MFC Candida albicans, lipopeptides without TFA counter ion [2] [µg/mL]	MBC Escherichia coli, lipopeptides without TFA counter ion [3] [µg/mL]	MIC Escherichia coli, lipopeptides without TFA counter ion [3] [µg/mL]	MBC Escherichia coli [3] [µg/mL]	MFC Candida tropicalis [5] [µg/mL]	MFC Aspergillus brasiliensis [6] [µg/mL]	MBC Staphylococcus aureus, lipopeptides without TFA counter ion [7] [µg/mL]	MIC Staphylococcus aureus, lipopeptides without TFA counter ion [7] [µg/mL]	MBC Staphylococcus aureus [7] [µg/mL]	MFC Candida albicans [8] [µg/mL]	MIC Candida albicans, lipopeptides without TFA counter ion [8] [µg/mL]	also measured
64 (≈ 132 µM)	>512	256 (≈ 529 µM)	256 (≈ 529 µM)	64 (≈ 132 µM)	128 (≈ 265 µM)	4 (≈ 8.27 µM)	CCCCCCCCCCCCCC(=O)N[C@@H](CCCCN)C(=O)N[C@@H](CCCCN)C(N)=O [C14-KK-NH2]	64 (≈ 132 µM)	128	256 (≈ 529 µM)	64 (≈ 132 µM)	32 (≈ 66.2 µM)	128 (≈ 265 µM)	256 (≈ 529 µM)	256 (≈ 529 µM)	64 (≈ 132 µM)	32 (≈ 66.2 µM)	64 (≈ 132 µM)	128 (≈ 265 µM)	256 (≈ 529 µM)	MBC Staphylococcus epidermidis [9]: 4 µg/mL (≈ 8.27 µM); MIC Bacillus subtillis [10]: 4 µg/mL (≈ 8.27 µM); MBC Bacillus subtillis [10]: 4 µg/mL (≈ 8.27 µM); MBC Klebsiella pneumoniae, lipopeptides without TFA counter ion [11]: 128 µg/mL (≈ 265 µM); MIC Klebsiella pneumoniae [11]: 128 µg/mL (≈ 265 µM); MIC Klebsiella pneumoniae, lipopeptides without TFA counter ion [11]: 128 µg/mL (≈ 265 µM); MBC Klebsiella pneumoniae [11]: 128 µg/mL (≈ 265 µM); MIC Pseudomonas aeruginosa [12]: 32 µg/mL (≈ 66.2 µM); MBC Enterococcus fecalis, lipopeptides without TFA counter ion [13]: 32 µg/mL (≈ 66.2 µM); MIC Enterococcus fecalis [13]: 32 µg/mL (≈ 66.2 µM); MIC Enterococcus fecalis, lipopeptides without TFA counter ion [13]: 32 µg/mL (≈ 66.2 µM); MBC Enterococcus fecalis [13]: 64 µg/mL (≈ 132 µM); MBC Proteus vulgaris [14]: >512 µg/mL
128 (≈ 209 µM)	>512	128 (≈ 209 µM)	64 (≈ 105 µM)	64 (≈ 105 µM)	128 (≈ 209 µM)	8 (≈ 13.1 µM)	CCCCCCCCCCCCCC(=O)N[C@@H](CCCCN)C(=O)N[C@@H](CCCCN)C(=O)N[C@@H](CCCCN)C(N)=O [C14-KKK-NH2]	128 (≈ 209 µM)	256	256 (≈ 418 µM)	128 (≈ 209 µM)	128 (≈ 209 µM)	128 (≈ 209 µM)	128 (≈ 209 µM)	64 (≈ 105 µM)	32 (≈ 52.3 µM)	32 (≈ 52.3 µM)	64 (≈ 105 µM)	128 (≈ 209 µM)	256 (≈ 418 µM)	MBC Staphylococcus epidermidis [9]: 8 µg/mL (≈ 13.1 µM); MIC Bacillus subtillis [10]: 4 µg/mL (≈ 6.54 µM); MBC Bacillus subtillis [10]: 4 µg/mL (≈ 6.54 µM); MBC Klebsiella pneumoniae, lipopeptides without TFA counter ion [11]: 256 µg/mL (≈ 418 µM); MIC Klebsiella pneumoniae [11]: 128 µg/mL (≈ 209 µM); MIC Klebsiella pneumoniae, lipopeptides without TFA counter ion [11]: 128 µg/mL (≈ 209 µM); MBC Klebsiella pneumoniae [11]: 128 µg/mL (≈ 209 µM); MIC Pseudomonas aeruginosa [12]: 32 µg/mL (≈ 52.3 µM); MBC Enterococcus fecalis, lipopeptides without TFA counter ion [13]: 64 µg/mL (≈ 105 µM); MIC Enterococcus fecalis [13]: 64 µg/mL (≈ 105 µM); MIC Enterococcus fecalis, lipopeptides without TFA counter ion [13]: 32 µg/mL (≈ 52.3 µM); MBC Enterococcus fecalis [13]: 64 µg/mL (≈ 105 µM); MBC Proteus vulgaris [14]: >512 µg/mL
